We go through two compounds from patent US9611265B2, “Tropomyosin-related kinase (TRK) inhibitors” (Genzyme Corporation, priority 2013, dated 2017).

The test system of one data set is PGPS Knee Arthritis. As to the kind of experiment: Reactivated Peptidoglycan-Polysaccharide Knee Arthritis. Type of data set: in vivo, Male Lewis rats. Conditions: for gait scores and deficiency, first reactivation: days 1-4. From the text: Male Lewis rats were acclimated to the testing facility for 7 days. The rats were housed in 5 per cage in shoe-box polycarbonate cages with wire tops, wood chip bedding and suspended food and water bottles. On day −21, the male Lewis rats were randomized into treatment groups by body weight. The rats were anesthetized and injected with peptidoglycan-polysaccharide (PGPS) into the right knee to induce PGPS arthritis. Arthritis was reactivated on days 0 and 14 by an IV tail injection of PGPS. […] Gait analysis was performed by applying ink to the ventral surface of the foot and documenting weight bearing during movement across paper. […] Right knees were removed, trimmed of extraneous tissue, and collected into 10% neutral buffered formalin. After two days in the formalin buffer and three days in 10% formic acid decalcifier, the knees were cut into two approximately equal halves in the frontal plane and processed for paraffin embedding and stained with T.Blue. Histological examinations were subsequently performed for bone resorption, inflammation, pannus and cartilage damage. […] Gait scores were analyzed using a Kruskal-Wallis test (non-parametric ANOVA) with Dunn's multiple comparison post-test. Histopathology scores were analyzed using a Kruskal-Wallis test (non-parametric ANOVA) with Dunn's multiple comparison post-test.

In data set [1] the test system is Monosodium Lodoacetate Induced Osteoarthritis. Description: Monosodium Iodoacetate Induced Osteoarthritis, weight bearing. Particulars: for comparison with MIA/LRS at day 35: day 35, p<0.05. Type of data set: in vivo, Male Wistar rats. An excerpt:
Male Wistar rats were acclimated to the testing facility for 5 days. The rats were individually housed in micro-isolator shoe-box polycarbonate cages with cob bedding and water bottles. Dry pelleted food of known composition and nutritional components was provided ad libitum Animals were randomized by treatment type using an online random number generator. Each treatment group was assigned a number, entered into the random number generator, recorded then translated back to the associated treatment. All injections were given in the left leg unless the treatment indicated “Contralateral” in which case the injection was given in the right leg. Both legs were shaved on all animals at the time of the treatment injections to blind the test administrator. The rats were weighed the day prior to injection with monosodium iodoacetate (MIA), the agent used to induce osteoarthritis in the animals. The day of injection, rats from groups 2-8 received a subcutaneous (SC) dose of buprenorphine at least one hour prior to induction. […] Naïve animals were then placed in recovery. All other animals received an injection of MIA. In animals receiving MIA, the hind leg was flexed and an injection of MIA (25 μL) was injected into the intra-articular space using a 27 gauge ½ inch needle. Standard postoperative care was performed (twice daily for 48 hours). On Day 8 the test article was administered as described above. On Days −1, 7, 14, 21, 28, and 35 post-induction, weight bearing was assessed. A weight bearing scale was utilized using a plexiglass chamber to assess the amount of weight distributed in each hind limb. The animals were acclimated to the chamber for at least 5 minutes prior to testing and the weight distribution was recorded 5 times. The animals were terminated at day 36. Both stifles were collected from each animal; the skin was removed from the joint and the patella was removed while leaving as much of the fat pad intact with the joint. The stifle was placed in the appropriate cassette with rolled gauze to secure the stifle in the cassette and then placed into 4% Paraformaldehyde. These samples were examined histologically.

The mark [2] stands for this setting: intra-articular on day -7 (Triamcinolone 0.06 mg; test compound 1 mg).
[3] abbreviates: Triamcinolone 0.06 mg intra-articular.

On to `COc1ccc(COc2ccc(Cn3c(N)nc4cc(-c5cnn(C)c5)cnc43)cc2OC)cc1` [Ex. 3-15, 3-(3-Methoxy-4-((4-methoxybenzyl)oxy)benzyl)-6-(1-methyl-1H-pyrazol-4-yl)-3H-imidazo[4,5-b]pyridin-2-amine], for which the “reduction of AUC for scores and deficiency, first reactivation” value with PGPS Knee Arthritis (1 mg intra-articular) is 92-93%. The “reduction of AUC for scores and deficiency, second reactivation” value with PGPS Knee Arthritis (1 mg intra-articular) is recorded as 85-86%. For the same compound, the “reduction of summed AUC for deficiency” value with PGPS Knee Arthritis (1 mg intra-articular) came out at 84%. For the same compound, the “histopathology, reductions in all parameters” value with PGPS Knee Arthritis (day 18, bone resorption, inflammation, pannus, cartilage damage (Triamcinolone 0.06 mg; test compound 1 mg)) is reported as 49-94%. Further, the knee caliper measurements result in the data set with PGPS Knee Arthritis (setting [2]) is listed as “significantly reduced on day 14”. The “reduction in knee caliper AUC” value in the data set on PGPS Knee Arthritis (setting [2]) is “generally unaffected by treatment”. For the same compound, the “gait scores and deficiency, first reactivation” value with PGPS Knee Arthritis (setting [2]) was “significant reductions in gait scores and deficiency throughout the first reactivation”. The “gait scores and deficiency, second reactivation” value with PGPS Knee Arthritis (intra-articular on day -7 (Triamcinolone 0.06 mg; test compound 1 mg), days 15-18) is “Scores were significantly reduced throughout the second reactivation, and reductions in deficiency were significant on days 15, 17, and 18”. Further, the weight bearing efficacy result in data set [1] (10 μg Contralateral) was “efficacy at 3 and 4 weeks following administration”; in data set [1] (10 μg Ipsilateral, intra-articular on Day 8), “efficacy was observed at 2 through 4 weeks following administration”; in data set [1] (30 μg Contralateral), “efficacy at only the 3 week timepoint”; in data set [1] (30 μg Ipsilateral, intra-articular on Day 8) it was “effective throughout the four weeks following administration”; in data set [1] (100 μg Ipsilateral, intra-articular on Day 8) it was “effective throughout the four weeks following administration”. The “comparison with MIA/LRS at day 35” value in data set [1] (30 μg Ipsilateral) and in data set [1] (100 μg Ipsilateral) was “MIA/LRS was significantly worse” in each case. In data set [1] (100 μg Contralateral, 1-4 weeks), the “systemic pain relief (weight bearing)” value is recorded as “did not show systemic pain relief at any timepoint”. The body weight results in data set [1] (10-100 μg intra-articular) is on record as “No adverse observations”. Besides, the “histopathology of the knee joint” value in data set [1] (day 36) was “no adverse changes”.
Consider `C[C@]12C=CC(=O)C=C1CC[C@H]1[C@@H]3C[C@@H](O)[C@](O)(C(=O)CO)[C@@]3(C)C[C@H](O)[C@@]12F` [Triamcinolone, reference compound], for which, in the data set with PGPS Knee Arthritis (setting [3]), the “reduction of gait scores and deficiency AUC, each reactivation calculated separately” value was 74-99%; the “reduction of gait scores and deficiency AUC, summed” value is 88-92%. In the data set on PGPS Knee Arthritis (setting [2]), the knee caliper measurements result was “significantly reduced on days 2, 4, 16, and 18”; the “reduction in knee caliper AUC” value was 53-106%; the “gait scores and deficiency, first reactivation” value was “significantly reduced gait scores and deficiency throughout the first reactivation (days 1-4)”.
